pIC50: −log10 of the molar value. “And” between values parts separate entries of the source, which are not always exact repeats. Equal values may be shown once.
Tested on: A498 complex spheroid viability
Experiment: Anticancer human tumor A498 cell line growth inhibition;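 note: spheroids exposed to agents for seven days before readout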;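 for viability, T/C: 100% = DMSO vehicle-treated spheroids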
Details: for viability, T/C: stronger effect = lower value; active = viability on the fitted dose curve at most 10% of control; inactive = the rest
Procedure, shortened: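 Multicellular complex spheroids of tumor cells with human endothelial cells (HUVEC) and mesenchymal stem cells; the LSD1 inhibitor iadademstat was combined with standard-of-care or investigational agents. Top concentration at or near clinical Cmax, half-log dilutions; final DMSO ≤0.25%.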

[1] = curve of first compound, second compound 0.1 µM
[2] = curve of first compound, second compound 0.316 µM
[3] = curve of first compound, second compound 1 µM
[4] = curve of first compound, second compound 3.16 µM
[5] = curve of first compound, second compound 10 µM
[6] = second compound 0.1 µM, first compound 0.00316 µM
[7] = second compound 0.1 µM, first compound 0.01 µM
[8] = second compound 0.1 µM, first compound 0.0316 µM
[9] = second compound 0.1 µM, first compound 0.1 µM
[10] = second compound 0.1 µM, first compound 0.316 µM
[11] = second compound 0.1 µM, first compound 1 µM
[12] = second compound 0.316 µM, first compound 0.00316 µM
[13] = second compound 0.316 µM, first compound 0.01 µM
[14] = second compound 0.316 µM, first compound 0.0316 µM
[15] = second compound 0.316 µM, first compound 0.1 µM
[16] = second compound 0.316 µM, first compound 0.316 µM
[17] = second compound 0.316 µM, first compound 1 µM
[18] = second compound 1 µM, first compound 0.00316 µM
[19] = second compound 1 µM, first compound 0.01 µM
[20] = second compound 1 µM, first compound 0.0316 µM
[21] = second compound 1 µM, first compound 0.1 µM
[22] = second compound 1 µM, first compound 0.316 µM
[23] = second compound 1 µM, first compound 1 µM
[24] = second compound 3.16 µM, first compound 0.00316 µM
[25] = second compound 3.16 µM, first compound 0.01 µM
[26] = second compound 3.16 µM, first compound 0.0316 µM
[27] = second compound 3.16 µM, first compound 0.1 µM
[28] = second compound 3.16 µM, first compound 0.316 µM
[29] = second compound 3.16 µM, first compound 1 µM
[30] = second compound 10 µM, first compound 0.00316 µM
[31] = second compound 10 µM, first compound 0.01 µM
[32] = second compound 10 µM, first compound 0.0316 µM
[33] = second compound 10 µM, first compound 0.1 µM
[34] = second compound 10 µM, first compound 0.316 µM
[35] = second compound 10 µM, first compound 1 µM
[36] = second compound 0.1 µM, first compound 0.000316 µM
[37] = second compound 0.1 µM, first compound 0.001 µM
[38] = second compound 0.316 µM, first compound 0.000316 µM
[39] = second compound 0.316 µM, first compound 0.001 µM
[40] = second compound 1 µM, first compound 0.000316 µM
[41] = second compound 1 µM, first compound 0.001 µM
[42] = second compound 3.16 µM, first compound 0.000316 µM
[43] = second compound 3.16 µM, first compound 0.001 µM
[44] = second compound 10 µM, first compound 0.000316 µM
[45] = second compound 10 µM, first compound 0.001 µM

COc1cc(Nc2ncc3c(n2)-c2ccc(Cl)cc2C(c2c(F)cccc2OC)=NC3)ccc1C(=O)O + NC1CC1c1ccc(-c2cccc(O)c2)cc1
7.09: pIC50 [3]
7.18: pIC50 [5]
7.46: pIC50 [4]
inactive: viability, T/C [6] 76.7% | viability, T/C [7] 65.5% | viability, T/C [8] 58.5% | viability, T/C [9] 54% | viability, T/C [10] 49.4% | viability, T/C [11] 41% | viability, T/C [12] 85.2% | viability, T/C [13] 72.3% | viability, T/C [14] 66.9% | viability, T/C [15] 56% | viability, T/C [16] 52.1% | viability, T/C [17] 39.9% | viability, T/C [18] 78.7% | viability, T/C [19] 60.7% | viability, T/C [20] 58% | viability, T/C [21] 48.2% | viability, T/C [22] 44.8% | viability, T/C [23] 34.6% | viability, T/C [24] 71.1% | viability, T/C [25] 53.8% | viability, T/C [26] 52.6% | viability, T/C [27] 46.4% | viability, T/C [28] 42.2% | viability, T/C [29] 36.9% | viability, T/C [30] 76.6% | viability, T/C [31] 59.3% | viability, T/C [32] 54.1% | viability, T/C [33] 50.8% | viability, T/C [34] 40.1% | viability, T/C [35] 31.6%
6.73: pIC50 [1]
6.55: pIC50 [2]

Cn1ncnc1C1c2n[nH]c(=O)c3cc(F)cc(c23)NC1c1ccc(F)cc1 (centres undefined) + NC1CCC(NC2CC2c2ccccc2)CC1
inactive: viability, T/C [36] 84% | viability, T/C [37] 88.1% | viability, T/C [6] 82.7% | viability, T/C [7] 87.4% | viability, T/C [8] 85.1% | viability, T/C [9] 85.3% | viability, T/C [38] 95.5% | viability, T/C [39] 95.5% | viability, T/C [12] 95% | viability, T/C [13] 89% | viability, T/C [14] 85.7% | viability, T/C [15] 90.9% | viability, T/C [40] 84.2% | viability, T/C [41] 94.5% | viability, T/C [18] 87% | viability, T/C [19] 84.2% | viability, T/C [20] 78.5% | viability, T/C [21] 81.3% | viability, T/C [42] 83.8% | viability, T/C [43] 85.3% | viability, T/C [24] 85.3% | viability, T/C [25] 78.5% | viability, T/C [26] 79.6% | viability, T/C [27] 74.9% | viability, T/C [44] 77.2% | viability, T/C [45] 76.8% | viability, T/C [30] 78.2% | viability, T/C [31] 74.9% | viability, T/C [32] 75.8% | viability, T/C [33] 65.3%
< 7.00: pIC50 [1] | pIC50 [2] | pIC50 [3] | pIC50 [4] | pIC50 [5]

Nc1ccn(C2OC(CO)C(O)C2(F)F)c(=O)n1 (centres undefined)
inactive: viability, T/C (compound 0.000949 µM) 22.8% and 20% | viability, T/C (compound 0.003 µM) 29.2% and 27.8% | viability, T/C (compound 0.00949 µM) 43.3% and 107% | viability, T/C (compound 0.03 µM) 36.6% and 35.1% | viability, T/C (compound 0.0949 µM) 37% and 34% | viability, T/C (compound 0.3 µM) 27.9% and 29.2%
> 9.02: pIC50 (curve of compound)

COc1cc(C2c3cc4c(cc3C(OC3OC5COC(C)OC5C(O)C3O)C3COC(=O)C23)OCO4)cc(OC)c1O (centres undefined)
< 5.52 and 5.58: pIC50 (curve of compound)
inactive: viability, T/C (compound 0.00949 µM) 89.7% and 87% | viability, T/C (compound 0.03 µM) 92.9% and 75.5% | viability, T/C (compound 0.0949 µM) 82.8% and 70.3% | viability, T/C (compound 0.3 µM) 78.1% and 74.6% | viability, T/C (compound 0.949 µM) 68.8% and 57% | viability, T/C (compound 3 µM) 56.8% and 48.7%

CC[C@@]1(O)C(=O)OCc2c1cc1n(c2=O)Cc2cc3c(CN(C)C)c(O)ccc3nc2-1 + NC1CCC(NC2CC2c2ccccc2)CC1
7.33: pIC50 [2]
inactive: viability, T/C [36] 82.3% | viability, T/C [37] 82.9% | viability, T/C [6] 71.7% | viability, T/C [7] 61.2% | viability, T/C [8] 57.5% | viability, T/C [9] 35.7% | viability, T/C [38] 96.6% | viability, T/C [39] 88.2% | viability, T/C [12] 81.8% | viability, T/C [13] 68% | viability, T/C [14] 59.1% | viability, T/C [15] 37.4% | viability, T/C [40] 85.3% | viability, T/C [41] 82.3% | viability, T/C [18] 78.8% | viability, T/C [19] 62.8% | viability, T/C [20] 56.6% | viability, T/C [21] 32.2% | viability, T/C [42] 78.7% | viability, T/C [43] 81.5% | viability, T/C [24] 73.1% | viability, T/C [25] 64.8% | viability, T/C [26] 53.7% | viability, T/C [27] 30.6% | viability, T/C [44] 76.9% | viability, T/C [45] 79% | viability, T/C [30] 69.8% | viability, T/C [31] 61.9% | viability, T/C [32] 50.1% | viability, T/C [33] 28%
7.42: pIC50 [3]
7.40: pIC50 [1]
7.44: pIC50 [4]
7.53: pIC50 [5]

O=C(c1cc(Cc2n[nH]c(=O)c3ccccc23)ccc1F)N1CCN(C(=O)C2CC2)CC1 + NC1CCC(NC2CC2c2ccccc2)CC1
inactive: viability, T/C [8] 85.1% | viability, T/C [9] 82.7% | viability, T/C [10] 89.1% | viability, T/C [11] 85.8% | viability, T/C (second compound 0.1 µM, first compound 3.16 µM) 84.7% | viability, T/C (second compound 0.1 µM, first compound 10 µM) 82.1% | viability, T/C [14] 92.3% | viability, T/C [15] 93.3% | viability, T/C [16] 94.4% | viability, T/C [17] 94.4% | viability, T/C (second compound 0.316 µM, first compound 3.16 µM) 85% | viability, T/C (second compound 0.316 µM, first compound 10 µM) 84.4% | viability, T/C [20] 82.3% | viability, T/C [21] 87.4% | viability, T/C [22] 91.1% | viability, T/C [23] 87.4% | viability, T/C (second compound 1 µM, first compound 3.16 µM) 79.5% | viability, T/C (second compound 1 µM, first compound 10 µM) 75.9% | viability, T/C [26] 79.8% | viability, T/C [27] 85.3% | viability, T/C [28] 69.5% | viability, T/C [29] 85.5% | viability, T/C (second compound 3.16 µM, first compound 3.16 µM) 79.2% | viability, T/C (second compound 3.16 µM, first compound 10 µM) 77.1% | viability, T/C [32] 71% | viability, T/C [33] 73.7% | viability, T/C [34] 74.4% | viability, T/C [35] 74.1% | viability, T/C (second compound 10 µM, first compound 3.16 µM) 62.5% | viability, T/C (second compound 10 µM, first compound 10 µM) 66.8%
< 5.00: pIC50 [1] | pIC50 [2] | pIC50 [3] | pIC50 [4] | pIC50 [5]

— PubChem BioAssay AID1918947 (Molecular Pharmacology Branch, DTP, NCI, 2023)
